Experimental data: patent publication US10189812B2, “Bi-benzyl isoquinoline derivative, preparation method and use thereof in hepatopathy treatment and prevention” (THE KEY LABORATORY OF CHEMISTRY FOR NATURAL PRODUCTS OF …, priority 2014, dated 2019)
Read-outs that look alike come from different tables or passages of the source.

Key:
Format in all cases: cell-based
[1] = tested on: PLC/PRF/5 liver cancer cell strains; assay: Tetrazolium salt reduction method (MTT) on human liver cancer cell strain PLC/PRF/5
Method: 2. human liver cancer cell strains PLC/PRF/5 model discrimination
(§1) Tested methods: Tetrazolium salt reduction method (MTT)
(1) Inoculating cells: A uniform cell suspension was prepared with culture solution containing fetal calf serum (10%). The suspension was implanted into a 96-well cell culture disc by 1000-10000 cells/200 μL per well.
(§2) (2) Culturing cells: The cells were cultured for 3-5 days according to known methods in the art (culturing time depending on experiment objective and requirement).
(§3) (3) Colour response: The cells were cultured for 3-5 days, 20 μl of MTT solution (5 mg/mL, PBS <pH=7.4>) was added in each well, incubated for 4 h. Culture was terminated and the culture suspension was carefully sucked out. As for suspension cells, they need be centrifuged before suspension solution in wells was sucked out. 150 μL of DMSO was added in each well, vibrated for 10 min. The crystal was fully dissolved.
(§4) (4) Colorimetry: Light absorbance values in each well were measured by ELISA at 490 nm and the results were recorded. The cell growth curve was drawn with time as the abscissa and absorbance values as vertical coordinates.
Model principle: Dehydrogenase related to NADP exists in mitochondria of living cell. Yellow MIT is reduced to insoluble blue-purple Formanzan. Dehydrogenase is disappeared in dead cell and MIT can not be reduced. According to reduction extent, action effect of sample on tumor cell is defected.

[2] = tested on: MHCC97L liver cancer cell strains; assay: Tetrazolium salt reduction method (MTT) on human liver cancer cell strain MHCC97L
Method: 3. human liver cancer cell strains MHCC97L model discrimination
as §1
(1) Inoculating cells: Inoculating cells: A uniform cell suspension was prepared with culture solution containing fetal calf serum (10%). The suspension was implanted into a 96-well cell culture disc by 1000-10000 cells/200 μL per well.
as §2, §3, §4
Model principle: Dehydrogenase related to NADP exists in mitochondria of living cell. Yellow MTT is reduced to insoluble blue-purple Formanzan. Dehydrogenase is disappeared in dead cell and MTT can not be reduced. According to reduction extent, action effect of sample on tumor cell is defected.

[3] = tested on: BEL-7402 cell; assay: Sulforhodamine B (SRB) growth inhibition of human liver cancer cell strain BEL-7402; conditions: for inhibition at 10 µM: Homo sapiens, read-out: BEL-7402/ Inhibition (%)
Method: 1. human liver cancer cell strains BEL-7402 model discrimination
Tested methods: Sulforhodamine B (SRB)
According to growth rate of tumor cells, the adherent cells in logarithmic growth phase was implanted into a 96-well cell culture plate by 200 μL per well. Adhering for 24 h before dosing, each concentration was set with 3 holes. The corresponding concentration of saline as for control group and withering holes without cells. The tumor cells were cultured for 72 h under 5% CO2 at 37° C.
The culture plate was takene out, 50 uL of trichloro acetic acid TCA fixed cells which were diluted to 50% (m/v) were added to each well. The plate was kept for 1 h at 4° C. If suspension cells are cultured, 50 uL cold TCA (80%) was added to each well. Final concentration of TCA is 16%, standed for 5 min, kept in a refrigerator for 1 h at 4° C.
Stationary liquid was sucked out, washed by 5 times with distilled water, dried in the air.
After drying in the air, 100 μL of SRB solution was added in each well, kept for 10-30 min at the room temperature.
The supernatant was sucked out, washed by 5 times with acetic acid (1%), dried in the air.
150 μL Tris solution was added in each well, vibrated for 5 min on the tablet oscillator.
OD values were measured with ELISA at 515 nm, zeroed with blank control.
Growth inhibition ratio of tumor cells was calculated according to the following formula: Inhibition=[(OD515control hole−OD515dosing hole)/OD515control hole]×100%.
According to inhibition ratio of different concentration, IC50 was determined with Logit method. Above experiment was repeated 2-3 times to give average IC50 values as for final index.
Model principle: SRB is a kind of protein binding dye which can be binded with basic amino acid in biological macromolecules. OD values in specific wavelength range have linear relationship with cell number. According to OD values of binding substance, action effect of sample on tumor cell is defected.

[4] = Homo sapiens, PLC-PRF-5, read-out: PLC/PRF/5 IC50 (μM)
[5] = Homo sapiens, MHCC97L, read-out: MHCC97L IC50 (μM)
[6] = MTT, cells cultured 3-5 days, read-out: PLC/PRF/5 IC50
[7] = MTT, cells cultured 3-5 days, read-out: MHCC97L IC50
[8] = 1.00 × 10^−5 mol/L, SRB, cells cultured 72 h
[9] = Homo sapiens, PLC-PRF-5, MTT, cells cultured 3-5 days, read-out: PLC/PRF/5 IC50
[10] = Homo sapiens, MHCC97L, MTT, cells cultured 3-5 days, read-out: MHCC97L IC50
[11] = Bel-7402, 1.00 × 10^−5 mol/L, SRB, cells cultured 72 h

IC50 [1, 6] [µM] | IC50 [2, 7] [µM] | IC50 [1, 9] [µM] | IC50 [2, 10] [µM] | SMILES | also measured
– | – | – | – | C=CC(=O)Nc1cc(OC)c2cc1C[C@H]1c3c(cc(OC)c(OC)c3Oc3cc4c(cc3OC)CCN(C)[C@H]4Cc3ccc(cc3)O2)CCN1C [Compound H-10] | IC50 [1, 4]: 10.7 µM; IC50 [2, 5]: 10.4 µM; inhibition at 10 µM ([3]; Bel-7402, 72 h): 87.74 ± 0.63%
2.5 | 2.1 | – | – | COc1cc(NC(=O)c2ccco2)c2cc1Oc1ccc(cc1)C[C@H]1c3cc(c(OC)cc3CCN1C)Oc1c(OC)c(OC)cc3c1[C@H](C2)N(C)CC3 [Compound H-15] | BEL-7402/ Inhibition (%) [3, 8]: 87.23 ± 2.26%
9 | 11.9 | – | – | COc1cc(NC(=O)c2cccs2)c2cc1Oc1ccc(cc1)C[C@H]1c3cc(c(OC)cc3CCN1C)Oc1c(OC)c(OC)cc3c1[C@H](C2)N(C)CC3 [Compound H-16] | BEL-7402/ Inhibition (%) [3, 8]: 93.40 ± 4.70%
11.6 | 9.4 | – | – | COc1cc(NS(=O)(=O)c2ccc([N+](=O)[O-])cc2)c2cc1Oc1ccc(cc1)C[C@H]1c3cc(c(OC)cc3CCN1C)Oc1c(OC)c(OC)cc3c1[C@H](C2)N(C)CC3 [Compound H-19] | BEL-7402/ Inhibition (%) [3, 8]: 92.70 ± 0.55%
11 | 12.5 | – | – | COc1cc(NS(=O)(=O)c2ccc(C)cc2)c2cc1Oc1ccc(cc1)C[C@H]1c3cc(c(OC)cc3CCN1C)Oc1c(OC)c(OC)cc3c1[C@H](C2)N(C)CC3 [Compound H-20] | BEL-7402/ Inhibition (%) [3, 8]: 93.91 ± 0.40%
9.1 | 8.2 | – | – | COc1cc(NS(=O)(=O)c2ccc(Cl)cc2)c2cc1Oc1ccc(cc1)C[C@H]1c3cc(c(OC)cc3CCN1C)Oc1c(OC)c(OC)cc3c1[C@H](C2)N(C)CC3 [Compound H-24] | BEL-7402/ Inhibition (%) [3, 8]: 90.01 ± 2.82%
12.2 | 10.8 | – | – | COc1cc(NC(=O)N2CCOCC2)c2cc1Oc1ccc(cc1)C[C@H]1c3cc(c(OC)cc3CCN1C)Oc1c(OC)c(OC)cc3c1[C@H](C2)N(C)CC3 [Compound H-26] | BEL-7402/ Inhibition (%) [3, 8]: 89.60 ± 2.01%
– | – | 11.9 | 12.1 | COc1cc2c3cc1Oc1c(OC)c(OC)c(Br)c4c1[C@H](Cc1c([N+](=O)[O-])cc(OC)c(c1Br)Oc1ccc(cc1)C[C@@H]3N(C)CC2)N(C)CC4 [Compound H-36] | –
– | – | 7.6 | 7.3 | C=C(OC)/C(OC)=C1/Oc2cc3c(cc2OC)CCN(C)[C@H]3Cc2ccc(cc2)Oc2cc(c(S(=O)(=O)O)cc2OC)C[C@H]2C1=CCCN2C [Compound H-37] | –
– | – | 10.2 | 10.7 | COc1cc(S(=O)(=O)Nc2ccccc2)c2cc1Oc1ccc(cc1)C[C@H]1c3cc(c(OC)cc3CCN1C)Oc1c(OC)c(OC)cc3c1[C@H](C2)N(C)CC3 [Compound H-38] | –
– | – | 8.1 | 9.9 | COc1cc(S(=O)(=O)OC)c2cc1Oc1ccc(cc1)C[C@H]1c3cc(c(OC)cc3CCN1C)Oc1c(OC)c(OC)cc3c1[C@H](C2)N(C)CC3 [Compound H-39] | –
– | – | 9 | 8.6 | COc1cc2c3cc1Oc1c(OC)c(OC)c(Br)c4c1[C@H](Cc1c(S(=O)(=O)O)cc(OC)c(c1Br)Oc1ccc(cc1)C[C@@H]3N(C)CC2)N(C)CC4 [Compound H-41] | –
– | – | 3.4 | 9.6 | COc1ccc2cc1Oc1ccc(cc1)C[C@H]1c3cc(c(OC)cc3CCN1C)Oc1c(ON=O)c(OC)cc3c1[C@H](C2)N(C)CC3 [Compound H-42] | –
– | – | 8.1 | 8.8 | COc1cc([N+](=O)[O-])c2cc1Oc1ccc(cc1)C[C@H]1c3cc(c(OC)cc3CCN1C)Oc1c(OC)c(OC)c(Cl)c3c1[C@H](C2)N(C)CC3 [Compound H-43] | –
– | – | 11.7 | 8.9 | COc1cc(S(=O)(=O)O)c2cc1Oc1ccc(cc1)C[C@H]1c3cc(c(OC)cc3CCN1C)Oc1c(OC(=O)c3ccccc3)c(OC)cc3c1[C@H](C2)N(C)CC3 [Compound H-45] | –
– | – | – | – | COc1ccc2cc1Oc1ccc(cc1)C[C@H]1c3cc(c(OC)cc3CCN1C)Oc1c(OC(C)=O)c(OC)c(Br)c3c1[C@H](C2)N(C)CC3 [Compound H-48] | IC50 [1, 4]: 0.5 µM; IC50 [2, 5]: 4.1 µM
– | – | – | – | COc1cc(Br)c2cc1Oc1ccc(cc1)C[C@H]1c3cc(c(OC)cc3CCN1C)Oc1c(OC(C)=O)c(OC)c(Br)c3c1[C@H](C2)N(C)CC3 [Compound H-49] | IC50 [1, 4]: 2.4 µM; IC50 [2, 5]: 8.7 µM
– | – | – | – | COc1cc2c3cc1Oc1c(OC(C)=O)c(OC)c(Cl)c4c1[C@H](Cc1c(Cl)cc(OC)c(c1Cl)Oc1ccc(cc1)C[C@@H]3N(C)CC2)N(C)CC4 [Compound H-51] | IC50 [1, 4]: 1.4 µM; IC50 [2, 5]: 10.4 µM
6.7 | 9.7 | – | – | COc1cc([N+](=O)[O-])c2cc1Oc1ccc(cc1)C[C@H]1c3cc(c(OC)cc3CCN1C)Oc1c(OC(=O)c3ccccc3)c(OC)cc3c1[C@H](C2)N(C)CC3 [Compound H-52] | –
– | – | 3.2 | 1.1 | COc1cc(S(=O)(=O)O)c2cc1Oc1ccc(cc1)C[C@H]1c3cc(c(OC)cc3CCN1C)Oc1c(O)c(OC)cc3c1[C@H](C2)N(C)CC3 [Compound H-53] | –
– | – | 3.2 | 0.4 | COc1cc(Cl)c2cc1Oc1ccc(cc1)C[C@H]1c3cc(c(OC)cc3CCN1C)Oc1c(OC)c(OC)c(Br)c3c1[C@H](C2)N(C)CC3 [Compound H-54] | –
– | – | – | – | COc1cccc2c1C(=O)c1c(O)c3c(c(O)c1C2=O)C[C@@](O)(C(=O)CO)C[C@@H]3O[C@H]1C[C@H](N)[C@H](O)[C@H](C)O1 [Doxorubicin, reference compound] | inhibition at 10 µM [3, 11]: 57.8 ± 4.05%
– | 34.4 | 26.9 | 34.4 | CNC(=O)c1cc(Oc2ccc(NC(=O)Nc3ccc(Cl)c(C(F)(F)F)c3)cc2)ccn1 [Sorafenib, reference compound] | –
– | – | – | – | COc1ccc2cc1Oc1ccc(cc1)C[C@H]1c3cc(c(OC)cc3CCN1C)Oc1c(O)c(OC)cc3c1[C@H](C2)N(C)CC3 [Tetrandrine B, reference compound] | IC50 [1, 4]: 16.9 µM; IC50 [2, 5]: 12.8 µM; inhibition at 10 µM ([3]; Bel-7402, 72 h): 23.9 ± 3.65%
– | – | – | – | COc1ccc2cc1Oc1ccc(cc1)C[C@H]1c3cc(c(OC)cc3CCN1C)Oc1c(OC)c(OC)cc3c1[C@H](C2)N(C)CC3 [Tetrandrine, 6,6′,7,12-tetramethoxy-2,2′-dimethyl berbamine, reference compound] | inhibition at 10 µM [3, 11]: 53.9 ± 3.72%

SMILES | IC50 [1, 6] [µM] | IC50 [2, 7] [µM] | IC50 [1, 9] [µM] | IC50 [2, 10] [µM] | also measured
COc1cc(S(=O)(=O)O)c2cc1Oc1ccc(cc1)C[C@H]1c3cc(c(OC)cc3CCN1C)Oc1c(OC)c(OC)c(Br)c3c1[C@H](C2)N(C)CC3 [Compound H-40] | 10.5 | 9.2 | – | – | –
COc1cc2c3cc1Oc1c(OC)c(OC)c(Cl)c4c1[C@H](Cc1c([N+](=O)[O-])cc(OC)c(c1Cl)Oc1ccc(cc1)C[C@@H]3N(C)CC2)N(C)CC4 [Compound H-44] | 4.1 | 9.4 | – | – | –
COc1cc(Cl)c2cc1Oc1ccc(cc1)C[C@H]1c3cc(c(OC)cc3CCN1C)Oc1c(OC(C)=O)c(OC)c(Cl)c3c1[C@H](C2)N(C)CC3 [Compound H-50] | 9.8 | 3.3 | – | – | –
